According to the supplement of paper PMC10307832:

Key:
Test in all cases: relative viability (nuclei count vs DMSO), 5 days (fraction); higher = more cells survive
Neratinib + Pictilisib = compound: CCOc1cc2ncc(C#N)c(Nc3ccc(OCc4ccccn4)c(Cl)c3)c2cc1NC(=O)/C=C/CN(C)C [Neratinib] + CS(=O)(=O)N1CCN(Cc2cc3nc(-c4cccc5[nH]ncc45)nc(N4CCOCC4)c3s2)CC1 [Pictilisib] (partner 1 µM)
Outline: (§1)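 Relative viability divides the nuclei count in treated wells by that in vehicle wells. Lung cancer cell lines were seeded in 1536-well plates, dosed by pin tool the next day, and fixed and stained after 5 days in one step with final 0.05% Triton X-100, 1% formaldehyde and 1 ug/ml Hoechst. Dosing was a single drug or a fixed anchor-drug dose plus five library-drug doses (not always all listed) in √10 steps, and values are medians of duplicate plates imaged at 4×.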

Neratinib + Navitoclax = compound: CCOc1cc2ncc(C#N)c(Nc3ccc(OCc4ccccn4)c(Cl)c3)c2cc1NC(=O)/C=C/CN(C)C [Neratinib] + CC1(C)CCC(c2ccc(Cl)cc2)=C(CN2CCN(c3ccc(C(=O)NS(=O)(=O)c4ccc(N[C@H](CCN5CCOCC5)CSc5ccccc5)c(S(=O)(=O)C(F)(F)F)c4)cc3)CC2)C1 [Navitoclax] (partner 0.5 µM)
Outline: as §1

Neratinib + Bortezomib = compound: CCOc1cc2ncc(C#N)c(Nc3ccc(OCc4ccccn4)c(Cl)c3)c2cc1NC(=O)/C=C/CN(C)C [Neratinib] + CC(C)C[C@H](NC(=O)[C@H](Cc1ccccc1)NC(=O)c1cnccn1)B(O)O [Bortezomib] (partner 0.002 µM)
Outline: as §1

Neratinib + Linsitinib = compound: CCOc1cc2ncc(C#N)c(Nc3ccc(OCc4ccccn4)c(Cl)c3)c2cc1NC(=O)/C=C/CN(C)C [Neratinib] + C[C@]1(O)C[C@@H](c2nc(-c3ccc4ccc(-c5ccccc5)nc4c3)c3c(N)nccn32)C1 [Linsitinib] (partner 1 µM)
Outline: as §1

Neratinib + Olaparib = compound: CCOc1cc2ncc(C#N)c(Nc3ccc(OCc4ccccn4)c(Cl)c3)c2cc1NC(=O)/C=C/CN(C)C [Neratinib] + O=C(c1cc(Cc2n[nH]c(=O)c3ccccc23)ccc1F)N1CCN(C(=O)C2CC2)CC1 [Olaparib] (partner 8 µM)
Outline: as §1

Neratinib + Crizotinib = compound: CCOc1cc2ncc(C#N)c(Nc3ccc(OCc4ccccn4)c(Cl)c3)c2cc1NC(=O)/C=C/CN(C)C [Neratinib] + C[C@@H](Oc1cc(-c2cnn(C3CCNCC3)c2)cnc1N)c1c(Cl)ccc(F)c1Cl [Crizotinib] (partner 1 µM)
Outline: as §1

Neratinib + Foretinib = compound: CCOc1cc2ncc(C#N)c(Nc3ccc(OCc4ccccn4)c(Cl)c3)c2cc1NC(=O)/C=C/CN(C)C [Neratinib] + COc1cc2c(Oc3ccc(NC(=O)C4(C(=O)Nc5ccc(F)cc5)CC4)cc3F)ccnc2cc1OCCCN1CCOCC1 [Foretinib] (partner 0.25 µM)
Outline: as §1

Neratinib + Alpelisib = compound: CCOc1cc2ncc(C#N)c(Nc3ccc(OCc4ccccn4)c(Cl)c3)c2cc1NC(=O)/C=C/CN(C)C [Neratinib] + Cc1nc(NC(=O)N2CCC[C@H]2C(N)=O)sc1-c1ccnc(C(C)(C)C(F)(F)F)c1 [Alpelisib] (partner 2 µM)
Outline: as §1

Neratinib + Lapatinib = compound: CCOc1cc2ncc(C#N)c(Nc3ccc(OCc4ccccn4)c(Cl)c3)c2cc1NC(=O)/C=C/CN(C)C [Neratinib] + CS(=O)(=O)CCNCc1ccc(-c2ccc3ncnc(Nc4ccc(OCc5cccc(F)c5)c(Cl)c4)c3c2)o1 [Lapatinib] (partner 2 µM)
Outline: as §1

Neratinib = compound: CCOc1cc2ncc(C#N)c(Nc3ccc(OCc4ccccn4)c(Cl)c3)c2cc1NC(=O)/C=C/CN(C)C [Neratinib]
Outline: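 For viability, nuclei in each treated well were divided by nuclei in vehicle wells and the median across plates was taken. Lung cancer cell lines in 1536-well plates were pinned with five library-drug doses (not always all listed) spaced by √10, cultured 5 days without medium change, and imaged at 4× after Hoechst staining, with plates passing only at control CV below 25% and at least one doubling.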

## EBC-1
Neratinib + Pictilisib; first compound 0.01 µM
  relative viability: 0.398
Neratinib + Pictilisib; first compound 0.03162 µM
  relative viability: 0.408
Neratinib + Pictilisib; first compound 0.1 µM
  relative viability: 0.378
Neratinib + Pictilisib; first compound 0.3162 µM
  relative viability: 0.319
Neratinib + Pictilisib; first compound 1 µM
  relative viability: 0.274
Neratinib + Navitoclax; first compound 0.01 µM
  relative viability: 0.439
Neratinib + Navitoclax; first compound 0.03162 µM
  relative viability: 0.408
Neratinib + Navitoclax; first compound 0.1 µM
  relative viability: 0.41
Neratinib + Navitoclax; first compound 0.3162 µM
  relative viability: 0.339
Neratinib + Navitoclax; first compound 1 µM
  relative viability: 0.219
Neratinib + Bortezomib; first compound 0.01 µM
  relative viability: 0.599
Neratinib + Bortezomib; first compound 0.03162 µM
  relative viability: 0.569
Neratinib + Bortezomib; first compound 0.1 µM
  relative viability: 0.541
Neratinib + Bortezomib; first compound 0.3162 µM
  relative viability: 0.533
Neratinib + Bortezomib; first compound 1 µM
  relative viability: 0.349
Neratinib + Linsitinib; first compound 0.01 µM
  relative viability: 0.932
Neratinib + Linsitinib; first compound 0.03162 µM
  relative viability: 1.08
Neratinib + Linsitinib; first compound 0.1 µM
  relative viability: 0.842
Neratinib + Linsitinib; first compound 0.3162 µM
  relative viability: 0.914
Neratinib + Linsitinib; first compound 1 µM
  relative viability: 1.04
Neratinib + Olaparib; first compound 0.01 µM
  relative viability: 0.774
Neratinib + Olaparib; first compound 0.03162 µM
  relative viability: 0.668
Neratinib + Olaparib; first compound 0.1 µM
  relative viability: 0.669
Neratinib + Olaparib; first compound 0.3162 µM
  relative viability: 0.695
Neratinib + Olaparib; first compound 1 µM
  relative viability: 0.544
Neratinib + Crizotinib; first compound 0.01 µM
  relative viability: 0.167
Neratinib + Crizotinib; first compound 0.03162 µM
  relative viability: 0.204
Neratinib + Crizotinib; first compound 0.1 µM
  relative viability: 0.175
Neratinib + Crizotinib; first compound 1 µM
  relative viability: 0.203
Neratinib + Foretinib; first compound 0.01 µM
  relative viability: 0.102
Neratinib + Foretinib; first compound 0.03162 µM
  relative viability: 0.0886
Neratinib + Foretinib; first compound 0.1 µM
  relative viability: 0.111
Neratinib + Foretinib; first compound 0.3162 µM
  relative viability: 0.113
Neratinib + Foretinib; first compound 1 µM
  relative viability: 0.0982
Neratinib + Alpelisib; first compound 0.01 µM
  relative viability: 0.912
Neratinib + Alpelisib; first compound 0.03162 µM
  relative viability: 0.958
Neratinib + Alpelisib; first compound 0.1 µM
  relative viability: 0.795
Neratinib + Alpelisib; first compound 0.3162 µM
  relative viability: 0.754
Neratinib + Alpelisib; first compound 1 µM
  relative viability: 0.517
Neratinib + Lapatinib; first compound 0.01 µM
  relative viability: 0.205
Neratinib + Lapatinib; first compound 0.03162 µM
  relative viability: 0.192
Neratinib + Lapatinib; first compound 0.1 µM
  relative viability: 0.199
Neratinib + Lapatinib; first compound 0.3162 µM
  relative viability: 0.233
Neratinib + Lapatinib; first compound 1 µM
  relative viability: 0.211
Neratinib; 0.01 µM
  relative viability: 1.02
Neratinib; 0.03162 µM
  relative viability: 1.12
Neratinib; 0.1 µM
  relative viability: 0.872
Neratinib; 0.3162 µM
  relative viability: 0.993
Neratinib; 1 µM
  relative viability: 0.813
